Laboratory results taken from US7786164B2, “Lipophilic di(anticancer drug) compounds, compositions, and related methods” (Sonus Pharmaceuticals, Inc., priority 2005, dated 2010).
Where two headings read alike, the source gives them in different places.

Tests used:
Assay type in all cases: cell-based
[1] = system: MDA-MB-231 (breast) cancer cell line; experiment: In vitro cytotoxicity (GI50), Sulforhodamine B staining, MDA-MB-231; conditions: Homo sapiens, read-out: Drug concentration that produces 50% cell growth inhibition (GI50), MDA-MB-231 (BREAST)
Description: (§1) In this example, the in vitro cytotoxicity, as measured by GI50 (50% of growth inhibition) values, was determined for representative lipophilic di(anticancer drug) compounds of the invention. The GI50 values of sebacate bis(7-ethylcamptothecin-10-yl)ester, sebacate bis(camptothecin-20-yl)ester, sebacate bis(paclitaxel-2′-yl)ester, and sebacate bis(docetaxel-2′-yl)ester, were measured in the following cancer cell lines: NCI-H460 (non-small cell lung), MDA-MB-231 (breast), […] (colon), and SKOV-3 (ovarian).
(§2) The study was performed using a solution of the lipophilic di(anticancer drug) compounds in DMSO (1 mM) diluted in the corresponding cell media. The cells were in contact with varying concentrations of the drug for a period of 48 hours. At the end of 48 hours, staining with Sulforhodamine B was performed to determine the number of viable cells and calculate the degree of cellular growth inhibition as compared to a control group.

[2] = system: HCT-116 (colon) cancer cell line; experiment: In vitro cytotoxicity (GI50), Sulforhodamine B staining, HCT-116; conditions: Homo sapiens, read-out: Drug concentration that produces 50% cell growth inhibition (GI50), HCT-116 (COLON)
Description: as §1, §2

[3] = system: NCI-H460 (non-small cell lung) cancer cell line; experiment: In vitro cytotoxicity (GI50), Sulforhodamine B staining, NCI-H460; conditions: Homo sapiens, read-out: Drug concentration that produces 50% cell growth inhibition (GI50), H460 (NSCLC)
Description: as §1, §2

[4] = system: SKOV-3 (ovarian) cancer cell line; experiment: In vitro cytotoxicity (GI50), Sulforhodamine B staining, SKOV-3; conditions: Homo sapiens, read-out: Drug concentration that produces 50% cell growth inhibition (GI50), SKOV-3 (OVARIAN)
Description: as §1, §2

[5] = MDA-MB-231 (breast) cells, 48 hours contact, Sulforhodamine B
[6] = HCT-116 (colon) cells, 48 hours contact, Sulforhodamine B
[7] = NCI-H460, H460 (NSCLC) cells, 48 hours contact, Sulforhodamine B
[8] = SK-OV-3, SKOV-3 (ovarian) cells, 48 hours contact, Sulforhodamine B

CC[C@@]1(OC(=O)CCCCCCCCC(=O)O[C@]2(CC)C(=O)OCc3c2cc2n(c3=O)Cc3cc4ccccc4nc3-2)C(=O)OCc2c1cc1n(c2=O)Cc2cc3ccccc3nc2-1 [sebacate bis(camptothecin-20-yl)ester, decanedioic acid bis[(4S)-4-ethyl-3,4,12,14-tetrahydro-3,14-dioxo-1H-pyrano[3′,4′:6,7]indolizino[1,2-b]quinolin-4-yl]ester]
GI50 [1, 5]: 9.25 µM | GI50 [2, 6]: 0.849 µM | GI50 [3, 7]: 3.15 µM | GI50 [4, 8]: 8.54 µM

CC(=O)O[C@H]1C(=O)[C@@]2(C)[C@H]([C@H](OC(=O)c3ccccc3)[C@]3(O)C[C@H](OC(=O)[C@H](OC(=O)CCCCCCCCC(=O)O[C@@H](C(=O)O[C@H]4C[C@@]5(O)[C@@H](OC(=O)c6ccccc6)[C@@H]6[C@]7(OC(C)=O)CO[C@@H]7C[C@H](O)[C@@]6(C)C(=O)[C@H](OC(C)=O)C(=C4C)C5(C)C)[C@@H](NC(=O)c4ccccc4)c4ccccc4)[C@@H](NC(=O)c4ccccc4)c4ccccc4)C(C)=C1C3(C)C)[C@]1(OC(C)=O)CO[C@@H]1C[C@@H]2O [sebacate bis(paclitaxel-2′-yl)ester, decanedioic acid bis[(1R,2S)-2-(benzoylamino)-1-[[[(2aR,4S,4aS,6R,9S,11S,12S,12aR,12bS)-6,12b-bis(acetyloxy)-12-(benzoyloxy)-2a,3,4,4a,5,6,9,10,11,12,12a, 12b-dodecahydro-4,11-dihydroxy-4a,8,13,13-tetramethyl-5-oxo-7,11-methano-1H-cyclodeca[3,4]benz[1,2-b]oxet-9-yl]oxy]carbonyl]-2-phenylethyl]ester]
GI50 ([1]; MDA-MB-231, 48 h): 0.0843 µM | GI50 ([2]; HCT-116, 48 h): 0.0399 µM | GI50 ([3]; NCI-H460, 48 h): 0.0832 µM | GI50 ([4]; SK-OV-3, 48 h): 0.0402 µM

CC(=O)O[C@@]12CO[C@@H]1C[C@H](O)[C@@]1(C)C(=O)[C@H](O)C3=C(C)[C@@H](OC(=O)[C@H](OC(=O)CCCCCCCCC(=O)O[C@@H](C(=O)O[C@H]4C[C@@]5(O)[C@@H](OC(=O)c6ccccc6)[C@@H]6[C@]7(OC(C)=O)CO[C@@H]7C[C@H](O)[C@@]6(C)C(=O)[C@H](O)C(=C4C)C5(C)C)[C@@H](NC(=O)OC(C)(C)C)c4ccccc4)[C@@H](NC(=O)OC(C)(C)C)c4ccccc4)C[C@@](O)([C@@H](OC(=O)c4ccccc4)[C@H]21)C3(C)C [sebacate bis(docetaxel-2′-yl)ester, decanedioic acid bis[(1R,2S)-1-[[[(2aR,4S,4aS,6R,9S,11S,12S,12aR,12bS)-12b-(acetyloxy)-12-(benzoyloxy)-2a,3,4,4a,5,6,9,10,11,12,12a,12b-dodecahydro-4,6,11-trihydroxy-4a,8,13,13-tetramethyl-5-oxo-7,11-methano-1H-cyclodeca[3,4]benz[1,2-b]oxet-9-yl]oxy]carbonyl]-2-[[(1,1-dimethylethoxy)carbonyl]amino]-2-phenylethyl]ester]
GI50 [1, 5]: 0.111 µM | GI50 [2, 6]: 0.0209 µM | GI50 [3, 7]: 0.0167 µM | GI50 [4, 8]: 0.135 µM

CCc1c2c(nc3ccc(OC(=O)CCCCCCCCC(=O)Oc4ccc5nc6c(c(CC)c5c4)Cn4c-6cc5c(c4=O)COC(=O)[C@]5(O)CC)cc13)-c1cc3c(c(=O)n1C2)COC(=O)[C@]3(O)CC [sebacate bis(7-ethylcamptothecin-10-yl), decanedioic acid bis[(4S)-4,11-diethyl-3,4,12,14-tetrahydro-4-hydroxy-3,14-dioxo-1H-pyrano[3′,4′:6,7]indolizino[1,2-b]quinolin-9-yl]ester]
GI50 ([1]; MDA-MB-231, 48 h): 0.303 µM | GI50 ([2]; HCT-116, 48 h): 0.00458 µM | GI50 ([3]; NCI-H460, 48 h): 0.00303 µM | GI50 ([4]; SK-OV-3, 48 h): 0.00853 µM
